Measured values published in PMC10791743, “Selective CK1α degraders exert antiproliferative activity against a broad range of human cancer cell lines” (Nature Communications, 2024).
“And” between values parts separate entries of the source, which are not always exact repeats. Equal values may be shown once.

What was measured:
IKZF2 = target: T1, IKZF2 (Homo sapiens, UniProt Q96SW2+Q9UKS7); assay: IKZF2 immunoblotting in MOLM-13 cells; type: cell-based
T1 construct: endogenous in cells; host or cells: MOLM-13
Procedure: We further tested the specificity of SJ3149 considering that previously reported CK1α degraders also lead to degradation of IKZF2[26]. Even though there was a negligible change in IKZF2 protein level in our proteomics studies, we sought to confirm this observation by immunoblotting. In a similar experiment to those shown in Fig. 2b, MOLM-13 cells were treated with SJ3149 for 4 h at increasing concentrations ranging from 1 nM to 10 µM and analyzed by immunoblotting to quantify IKZF2 and CK1α proteins. While at 4 nM concentration SJ3149 induced 50% degradation of CK1α protein, IKZF2 levels were reduced by only ~40% at the highest dose (10 μM), confirming the selectivity of SJ3149 for CK1α over IKZF2 (Supplementary Fig. 6d). These collective data support the claim that CK1α degradation is responsible for the observed cellular phenotypes induced by SJ3149 treatment.
(§1) Frozen pellets of ~1 million cells were lysed in 150 µl of SDS lysis buffer (60 mM Tris/HCl pH 7, 10% glycerol, 2% SDS, 5% beta-mercaptoethanol, 0.02% bromophenol blue, 0.5% protease and phosphatase inhibitor cocktail (Sigma Aldrich)). When cells were resuspended, samples were heated for 3 min at 99 °C then put on ice. Samples were then fragmented by sonication for 10 0.5-s pulses (550 Sonic Dismembrator, Fisher Scientific) and heated again at 99 °C for 2 min. 15 μl of each sample was added to the wells of a 4–20% polyacrylamide gel (Bio-Rad). A mixture of 2 μl of Precision Plus Protein Unstained Standards and 2 μl of Precision Plus Protein All Blue Standards (Bio-Rad) was used for the size marker. After electrophoresis, gels were transferred to nitrocellulose membrane using the Bio-Rad Trans-Blot Turbo system on the mixed molecular weight setting. Membranes were blocked for 1 h in Li-Cor Intercept Blocking Buffer then probed overnight at 4 °C with primary antibody, at 1:1000 dilution or 1:2000 dilution for actin, in Li-Cor Intercept Antibody Diluent. The following morning, membranes were washed three times for 5 min with TBS + 0.05% Tween-20, probed with fluorescent secondary antibodies (goat anti-rabbit IRDye 800CW and goat anti-mouse IRDye 680RD, Li-Cor) for 1 h at room temperature in the dark at 1:10,000 dilution, and washed again 3 times. Blots were imaged with the Li-Cor Odyssey CLx and analyzed using Image Studio Version 5.2.
Primary antibodies used: rabbit anti-CK1α, ab206652, clone EPR19824, Abcam rabbit anti-p21, 2947S, clone 12D1, Cell Signaling Technology rabbit anti-Helios (IKZF2), 42427, clone D8W4X, Cell Signaling Technology mouse anti-beta actin, 3700S, clone 8H10D10, Cell Signaling Technology

CK1α G40N = target: T2, CK1α G40N (Homo sapiens, UniProt P48729, G40N); assay: Immunoblot of transduced MOLM-13 cells (FLAG-CK1α WT / G40N); type: cell-based; conditions: 1 μM, 4 h
T2 construct: host or cells: MOLM-13, lentiviral transduction, puromycin selected
Procedure: To evaluate the contribution of the CK1α degradation in SJ3149-mediated cytotoxicity, we utilized the degradation-resistant mutant CK1α G40N[41]. MOLM-13 cells were transduced with lentivirus to overexpress FLAG-tagged wild type CK1α or the G40N mutant, which removes the essential glycine in the CK1α degron G-loop.
as §1, with “Membranes were blocked for 1 h in Li-Cor Intercept Blocking Buffer then probed overnight at 4 °C with primary antibody, at 1:1000 dilution or 1:2000 dilution for actin, in Li-Cor Intercept Antibody Diluent. The following morning, membranes were washed three times for 5 min with TBS + 0.05% Tween-20, probed with fluorescent secondary antibodies (goat anti-rabbit IRDye 800CW and goat anti-mouse IRDye 680RD, Li-Cor) for 1 h at room temperature in the dark at 1:10,000 dilution, and washed again 3 times.” left out, “5.2. […]” for “5.2.”

[1] = western blot quantification, relative to DMSO

T1 sequence (Q9UKS7 whole entry): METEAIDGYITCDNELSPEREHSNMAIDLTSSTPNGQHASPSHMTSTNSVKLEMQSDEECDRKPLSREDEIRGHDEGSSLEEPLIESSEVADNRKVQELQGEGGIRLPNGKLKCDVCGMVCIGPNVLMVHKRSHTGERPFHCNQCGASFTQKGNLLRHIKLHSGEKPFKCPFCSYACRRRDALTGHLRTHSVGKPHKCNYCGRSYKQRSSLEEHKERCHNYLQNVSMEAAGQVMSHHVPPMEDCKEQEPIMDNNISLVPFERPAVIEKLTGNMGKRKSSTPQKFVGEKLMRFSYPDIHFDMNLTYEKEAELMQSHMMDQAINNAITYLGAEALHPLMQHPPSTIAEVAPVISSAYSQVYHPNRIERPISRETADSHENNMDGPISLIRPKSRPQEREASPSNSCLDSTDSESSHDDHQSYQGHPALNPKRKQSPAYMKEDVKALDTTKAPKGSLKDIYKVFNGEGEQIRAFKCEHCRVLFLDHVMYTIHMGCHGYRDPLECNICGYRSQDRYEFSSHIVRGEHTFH
T1 sequence (Q96SW2 whole entry): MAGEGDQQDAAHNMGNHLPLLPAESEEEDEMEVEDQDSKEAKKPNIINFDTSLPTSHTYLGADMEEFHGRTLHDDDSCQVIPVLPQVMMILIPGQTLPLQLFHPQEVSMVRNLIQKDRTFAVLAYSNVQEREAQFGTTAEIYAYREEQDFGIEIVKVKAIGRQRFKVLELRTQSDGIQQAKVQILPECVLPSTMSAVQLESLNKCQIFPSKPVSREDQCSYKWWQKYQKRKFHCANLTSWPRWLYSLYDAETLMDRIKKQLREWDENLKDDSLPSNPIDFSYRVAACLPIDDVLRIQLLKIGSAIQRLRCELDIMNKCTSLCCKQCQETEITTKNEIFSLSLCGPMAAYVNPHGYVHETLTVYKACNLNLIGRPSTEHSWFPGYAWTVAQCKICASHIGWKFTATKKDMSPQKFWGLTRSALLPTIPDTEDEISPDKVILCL
T1 sequence (Q16531 whole entry partner): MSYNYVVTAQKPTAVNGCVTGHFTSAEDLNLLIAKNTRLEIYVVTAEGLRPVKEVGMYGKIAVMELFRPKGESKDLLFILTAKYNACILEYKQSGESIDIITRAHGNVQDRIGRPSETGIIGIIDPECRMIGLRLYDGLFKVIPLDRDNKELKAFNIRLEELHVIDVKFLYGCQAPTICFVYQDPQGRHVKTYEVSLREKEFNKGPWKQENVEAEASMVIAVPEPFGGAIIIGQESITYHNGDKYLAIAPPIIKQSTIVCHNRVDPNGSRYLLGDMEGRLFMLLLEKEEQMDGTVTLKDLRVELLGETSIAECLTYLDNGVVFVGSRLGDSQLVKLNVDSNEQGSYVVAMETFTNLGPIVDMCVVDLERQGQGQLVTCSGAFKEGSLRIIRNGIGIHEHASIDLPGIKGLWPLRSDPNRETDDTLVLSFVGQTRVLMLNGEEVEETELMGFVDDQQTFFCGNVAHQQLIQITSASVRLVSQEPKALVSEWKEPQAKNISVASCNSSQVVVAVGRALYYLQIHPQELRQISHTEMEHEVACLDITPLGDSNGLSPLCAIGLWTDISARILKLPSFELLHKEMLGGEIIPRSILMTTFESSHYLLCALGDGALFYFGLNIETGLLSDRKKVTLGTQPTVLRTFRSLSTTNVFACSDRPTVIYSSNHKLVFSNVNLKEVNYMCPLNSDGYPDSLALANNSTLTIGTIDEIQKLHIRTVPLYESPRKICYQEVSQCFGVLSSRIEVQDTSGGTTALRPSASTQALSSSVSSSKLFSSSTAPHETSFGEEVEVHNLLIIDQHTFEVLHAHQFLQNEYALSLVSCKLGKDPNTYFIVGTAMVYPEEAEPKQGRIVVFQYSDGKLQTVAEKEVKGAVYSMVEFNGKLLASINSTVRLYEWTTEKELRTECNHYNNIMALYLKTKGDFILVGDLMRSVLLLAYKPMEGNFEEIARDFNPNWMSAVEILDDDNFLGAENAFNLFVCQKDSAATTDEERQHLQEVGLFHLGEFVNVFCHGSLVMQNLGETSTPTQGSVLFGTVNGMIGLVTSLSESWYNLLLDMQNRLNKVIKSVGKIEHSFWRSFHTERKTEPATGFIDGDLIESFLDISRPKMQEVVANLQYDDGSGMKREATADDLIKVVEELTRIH
T2 sequence (Q96SW2 whole entry partner): as the sequence (Q96SW2 whole entry) above
T2 sequence (Q16531 whole entry partner): as the sequence (Q16531 whole entry partner) above
T2 sequence (P48729 whole entry G40N): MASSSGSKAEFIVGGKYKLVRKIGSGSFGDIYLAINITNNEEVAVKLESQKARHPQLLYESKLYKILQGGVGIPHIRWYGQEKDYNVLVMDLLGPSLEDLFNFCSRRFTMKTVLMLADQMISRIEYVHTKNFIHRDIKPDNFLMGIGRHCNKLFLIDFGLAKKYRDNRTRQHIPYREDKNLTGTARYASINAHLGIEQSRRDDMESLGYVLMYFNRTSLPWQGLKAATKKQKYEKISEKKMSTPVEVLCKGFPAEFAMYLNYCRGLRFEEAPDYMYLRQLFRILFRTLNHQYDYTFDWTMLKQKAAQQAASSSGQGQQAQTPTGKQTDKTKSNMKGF

In the case of `O=C1CCC(N2Cc3cc(Nc4noc5ccccc45)ccc3C2=O)C(=O)N1` (stereo not drawn) [SJ3149], the IKZF2 level reduction (IKZF2; MOLM-13, 10 μM, 4 h) is reported as ~ 40%, the “IKZF2 western blot quantification” value (IKZF2; SJ3149 0.001 uM, relative to DMSO) is reported as 1.093 and 0.9655 and 0.8978 and the “IKZF2 western blot quantification” value (IKZF2; SJ3149 0.01 uM, relative to DMSO) is reported as 0.8205 and 1.143 and 0.8035. For the same molecule, the “IKZF2 western blot quantification” value (IKZF2; SJ3149 0.1 uM, relative to DMSO) was 0.5925 and 0.7587 and 0.8297, the “IKZF2 western blot quantification” value (IKZF2; SJ3149 1 uM, relative to DMSO) was 0.5412 and 0.7758 and 0.64 and the “IKZF2 western blot quantification” value (IKZF2; SJ3149 10 uM, relative to DMSO) was 0.4999 and 0.6664 and 0.6326. The “Bottom (sigmoidal 4PL fit) of IKZF2 protein level” value (IKZF2; [1]) was 0.61, the “Top (sigmoidal 4PL fit) of IKZF2 protein level” value (IKZF2; [1]) was 1.002 and the “Degradation of G40N mutant CK1α protein” value (CK1α G40N) was “resistance of the G40N mutant protein to SJ3149 mediated degradation”.
